Experimental findings from ChEMBL document CHEMBL5260845, “Flavone-based arylamides as potential anticancers: Design, synthesis and in vitro cell-based/cell-free evaluations” (2020) are described below.

Test [1] deals with Ephrin type-A receptor 3 (Homo sapiens) (UniProt P29320). In words: Inhibition of EPHA3 (unknown origin) at 10 uM by biochemical hotspot kinase assay relative to control.
Test [2] addresses Receptor tyrosine-protein kinase erbB-4 (Homo sapiens) (UniProt Q15303). Put plainly: Inhibition of ERBB4 (unknown origin) at 10 uM by biochemical hotspot kinase assay relative to control.
Test [3] concerns the target Angiopoietin-1 receptor (Homo sapiens) (UniProt Q02763). In words: Inhibition of TIE2 (unknown origin) at 10 uM by biochemical hotspot kinase assay relative to control.
In test [4] the target is Interleukin-1 receptor-associated kinase 4 (Homo sapiens) (UniProt Q9NWZ3). In words: Inhibition of IRAK4 (unknown origin) at 10 uM by biochemical hotspot kinase assay.
In test [5] the target is Glycogen synthase kinase-3 beta (Homo sapiens) (UniProt P49841). Put plainly: Inhibition of GSK3beta (unknown origin) at 10 uM by biochemical hotspot kinase assay relative to control.
The test system of test [6] is A498. In words: Antiproliferative activity against human A498 cells assessed as inhibition of cell growth at 10 uM by SRB assay relative to control. The class given is functional. On the technique in general: The SRB assay estimates cell density from bound dye.
In test [7] the target is Mitogen-activated protein kinase kinase kinase kinase 4 (Homo sapiens) (UniProt O95819). Put plainly: Inhibition of HGK (unknown origin) at 10 uM by biochemical hotspot kinase assay relative to control.
For test [8], the system named is SNB-75. In words: Antiproliferative activity against human SNB-75 cells assessed as cell growth inhibition at 10 uM by SRB assay relative to control. It counts as functional.
Test [9] concerns the target Vascular endothelial growth factor receptor 1 (Homo sapiens) (UniProt P17948). In words: Inhibition of VEGFR1 (unknown origin) at 10 uM by biochemical hotspot kinase assay relative to control.
The target in test [10] is Serine/threonine-protein kinase ICK (Homo sapiens) (UniProt Q9UPZ9). Put plainly: Inhibition of LCK2 (unknown origin) at 10 uM by biochemical hotspot kinase assay.
The target of test [11] is Tyrosine-protein kinase BTK (Homo sapiens) (UniProt Q06187). Put plainly: Inhibition of BTK (unknown origin) at 10 uM by biochemical hotspot kinase assay relative to control.
The target in test [12] is Vascular endothelial growth factor receptor 2 (Homo sapiens) (UniProt P35968). In words: Inhibition of VEGFR2 (unknown origin) at 10 uM by biochemical hotspot kinase assay.
For test [13], the target named is Mitogen-activated protein kinase kinase kinase 14 (Homo sapiens) (UniProt Q99558). In words: Inhibition of MAP3K14 (unknown origin) at 10 uM by biochemical hotspot kinase assay relative to control.
In test [14] the target is Tyrosine-protein kinase JAK3 (Homo sapiens) (UniProt P52333). Put plainly: Inhibition of JAK3 (unknown origin) at 10 uM by biochemical hotspot kinase assay.
Test [15] has as its target Death-associated protein kinase 3 (Homo sapiens) (UniProt O43293). Put plainly: Inhibition of DAPK3 (unknown origin) at 10 uM by biochemical hotspot kinase assay.
Test [16] addresses Tyrosine-protein kinase SYK (Homo sapiens) (UniProt P43405). In words: Inhibition of SYK (unknown origin) at 10 uM by biochemical hotspot kinase assay relative to control.
In test [17] the target is Ribosomal protein S6 kinase alpha-1 (Homo sapiens) (UniProt Q15418). Put plainly: Inhibition of RSK1 (unknown origin) at 10 uM by biochemical hotspot kinase assay.
Test [18] deals with Cyclin-dependent kinase 1/cyclin B (Homo sapiens) (UniProt P06493+P14635+Q8WWL7+O95067). In words: Inhibition of CDK1/cyclin B (unknown origin) at 10 uM by biochemical hotspot kinase assay. It counts as protein-complex assay.
In test [19] the target is Homeodomain-interacting protein kinase 1 (Homo sapiens) (UniProt Q86Z02). Put plainly: Inhibition of HIPK1 (unknown origin) at 10 uM by biochemical hotspot kinase assay.
Test [20] concerns the target Serine/threonine-protein kinase PAK 1 (Homo sapiens) (UniProt Q13153). In words: Inhibition of PAK1 (unknown origin) at 10 uM by biochemical hotspot kinase assay.
For test [21], the target named is Death-associated protein kinase 2 (Homo sapiens) (UniProt Q9UIK4). In words: Inhibition of DAPK2 (unknown origin) at 10 uM by biochemical hotspot kinase assay relative to control.
Test [22] addresses RAF proto-oncogene serine/threonine-protein kinase (Homo sapiens) (UniProt P04049). Put plainly: Inhibition of c-RAF (unknown origin) at 10 uM by biochemical hotspot kinase assay relative to control.
Test [23] has as its target Insulin receptor (Homo sapiens) (UniProt P06213). Put plainly: Inhibition of INSR (unknown origin) at 10 uM by biochemical hotspot kinase assay.
Test [24] addresses Mitogen-activated protein kinase 7 (Homo sapiens) (UniProt Q13164). In words: Inhibition of ERK5 (unknown origin) at 10 uM by biochemical hotspot kinase assay.
In test [25] the target is Mitogen-activated protein kinase kinase kinase kinase 1 (Homo sapiens) (UniProt Q92918). Put plainly: Inhibition of HPK1 (unknown origin) at 10 uM by biochemical hotspot kinase assay.
The target of test [26] is Serine/threonine-protein kinase Chk1 (Homo sapiens) (UniProt O14757). In words: Inhibition of CHK1 (unknown origin) at 10 uM by biochemical hotspot kinase assay.
The target in test [27] is CDK1/Cyclin E (Homo sapiens) (UniProt P06493+P24864). Put plainly: Inhibition of CDK1/cyclin E (unknown origin) at 10 uM by biochemical hotspot kinase assay. The class given is protein-complex assay.
Test [28] concerns the target Phosphorylase b kinase gamma catalytic chain, liver/testis isoform (Homo sapiens) (UniProt P15735). In words: Inhibition of PHKG2 (unknown origin) at 10 uM by biochemical hotspot kinase assay relative to control.
Test [29] concerns the target Mitogen-activated protein kinase kinase kinase 7 (Homo sapiens) (UniProt O43318). Put plainly: Inhibition of TAK1 (unknown origin) at 10 uM by biochemical hotspot kinase assay relative to control.
In test [30] the target is Proto-oncogene tyrosine-protein kinase Src (Homo sapiens) (UniProt P12931). Put plainly: Inhibition of c-Src (unknown origin) at 10 uM by biochemical hotspot kinase assay.
For test [31], the target named is Death-associated protein kinase 1 (Homo sapiens) (UniProt P53355). In words: Inhibition of DAPK1 (unknown origin) at 10 uM by biochemical hotspot kinase assay.
The test system of test [32] is HT-29. Put plainly: Induction of cell cycle arrest in human HT-29 cells assessed as accumulation of cells at G1 phase at 10 uM incubated for 24 hrs by PI staining based analysis (reference value: 40.3%). The class given is functional.
In test [33] the target is cAMP-dependent protein kinase (PKA) (Homo sapiens) (UniProt P22694+P17612+P22612). In words: Inhibition of PKA (unknown origin) at 10 uM by biochemical hotspot kinase assay. It counts as protein assay.
Test [34] has as its system SF-268. In words: Antiproliferative activity against human SF-268 cells assessed as cell growth inhibition at 10 uM by SRB assay relative to control. It counts as functional.
Test [35] deals with M14. In words: Antiproliferative activity against human M14 cells assessed as cell growth inhibition at 10 uM by SRB assay relative to control. The class given is functional.
Test [36] concerns SK-OV-3. In words: Antiproliferative activity against human SK-OV-3 cells assessed as inhibition of cell growth at 10 uM by SRB assay relative to control. The class given is functional.
Test [37] deals with SK-MEL-2. In words: Antiproliferative activity against human SK-MEL-2 cells assessed as cell growth inhibition at 10 uM by SRB assay relative to control. Particulars: Homo sapiens, SK-MEL-2, dose 10 µM. It counts as functional.

The source made the active and inactive calls. The rule behind the calls is not given here.

Tyrosine-protein kinase JAK3 (Homo sapiens), sequence (P52333 whole entry): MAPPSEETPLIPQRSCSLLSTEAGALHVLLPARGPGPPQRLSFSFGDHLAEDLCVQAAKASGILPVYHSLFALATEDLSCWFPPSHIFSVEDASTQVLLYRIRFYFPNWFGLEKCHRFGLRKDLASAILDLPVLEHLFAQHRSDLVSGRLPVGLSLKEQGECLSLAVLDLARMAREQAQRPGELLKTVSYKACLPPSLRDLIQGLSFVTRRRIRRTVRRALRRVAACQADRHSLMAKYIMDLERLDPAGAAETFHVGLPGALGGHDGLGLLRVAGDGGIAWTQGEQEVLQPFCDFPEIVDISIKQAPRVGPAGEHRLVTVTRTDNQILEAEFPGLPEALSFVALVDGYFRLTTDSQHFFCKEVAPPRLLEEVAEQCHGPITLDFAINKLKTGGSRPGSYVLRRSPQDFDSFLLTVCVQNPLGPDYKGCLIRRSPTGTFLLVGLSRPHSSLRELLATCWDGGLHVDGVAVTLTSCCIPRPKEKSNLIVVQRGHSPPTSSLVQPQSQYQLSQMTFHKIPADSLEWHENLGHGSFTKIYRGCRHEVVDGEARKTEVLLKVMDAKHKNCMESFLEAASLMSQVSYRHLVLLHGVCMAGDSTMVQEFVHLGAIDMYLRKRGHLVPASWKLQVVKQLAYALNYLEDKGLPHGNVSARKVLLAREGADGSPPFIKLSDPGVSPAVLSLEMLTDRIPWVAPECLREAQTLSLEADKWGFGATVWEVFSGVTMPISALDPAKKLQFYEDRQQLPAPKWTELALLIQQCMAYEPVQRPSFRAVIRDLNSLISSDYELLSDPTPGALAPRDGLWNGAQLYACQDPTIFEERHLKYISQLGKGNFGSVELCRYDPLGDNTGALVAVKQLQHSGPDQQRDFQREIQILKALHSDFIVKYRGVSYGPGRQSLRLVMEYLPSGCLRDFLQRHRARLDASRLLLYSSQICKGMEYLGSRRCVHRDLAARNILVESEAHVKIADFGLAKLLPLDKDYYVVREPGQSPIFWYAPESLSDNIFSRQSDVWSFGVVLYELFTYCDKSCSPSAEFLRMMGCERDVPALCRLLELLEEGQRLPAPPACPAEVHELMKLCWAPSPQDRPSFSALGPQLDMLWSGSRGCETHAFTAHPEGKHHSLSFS
Proto-oncogene tyrosine-protein kinase Src (Homo sapiens), sequence (P12931 2-536 limits assumed): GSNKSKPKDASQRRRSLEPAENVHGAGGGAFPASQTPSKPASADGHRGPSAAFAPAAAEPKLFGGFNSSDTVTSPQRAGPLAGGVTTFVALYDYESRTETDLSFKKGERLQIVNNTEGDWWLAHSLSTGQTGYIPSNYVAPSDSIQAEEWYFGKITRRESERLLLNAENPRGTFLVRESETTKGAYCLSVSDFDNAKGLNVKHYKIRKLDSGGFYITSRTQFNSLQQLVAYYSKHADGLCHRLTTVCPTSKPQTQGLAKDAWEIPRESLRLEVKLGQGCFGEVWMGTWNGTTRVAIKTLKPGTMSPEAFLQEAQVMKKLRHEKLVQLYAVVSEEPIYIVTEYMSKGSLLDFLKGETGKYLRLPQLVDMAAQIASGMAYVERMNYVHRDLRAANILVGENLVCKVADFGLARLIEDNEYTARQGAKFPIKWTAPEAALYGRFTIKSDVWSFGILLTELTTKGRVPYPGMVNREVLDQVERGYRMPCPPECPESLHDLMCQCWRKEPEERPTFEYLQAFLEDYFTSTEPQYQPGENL
Insulin receptor (Homo sapiens), sequence (P06213 28-758 limits assumed): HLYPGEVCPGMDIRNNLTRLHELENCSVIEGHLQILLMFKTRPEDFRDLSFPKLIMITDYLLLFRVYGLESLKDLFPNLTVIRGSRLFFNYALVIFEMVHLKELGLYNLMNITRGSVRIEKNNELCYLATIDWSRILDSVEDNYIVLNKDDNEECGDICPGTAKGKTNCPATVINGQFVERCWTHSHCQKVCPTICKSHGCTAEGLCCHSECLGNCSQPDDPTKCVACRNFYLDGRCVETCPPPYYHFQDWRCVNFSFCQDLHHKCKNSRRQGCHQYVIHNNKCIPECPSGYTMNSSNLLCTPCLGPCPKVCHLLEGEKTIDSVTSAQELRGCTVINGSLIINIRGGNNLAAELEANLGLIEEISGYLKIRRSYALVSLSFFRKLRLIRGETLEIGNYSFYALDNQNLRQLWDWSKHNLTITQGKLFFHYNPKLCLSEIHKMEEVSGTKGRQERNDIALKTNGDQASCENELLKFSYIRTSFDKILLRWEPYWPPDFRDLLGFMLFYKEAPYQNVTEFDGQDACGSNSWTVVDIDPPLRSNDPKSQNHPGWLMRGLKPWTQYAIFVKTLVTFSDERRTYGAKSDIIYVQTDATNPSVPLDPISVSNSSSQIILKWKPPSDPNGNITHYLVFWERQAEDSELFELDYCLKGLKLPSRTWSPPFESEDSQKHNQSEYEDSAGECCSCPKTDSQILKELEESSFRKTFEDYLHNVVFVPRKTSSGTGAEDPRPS
Insulin receptor (Homo sapiens), sequence (P06213 763-1382 limits assumed): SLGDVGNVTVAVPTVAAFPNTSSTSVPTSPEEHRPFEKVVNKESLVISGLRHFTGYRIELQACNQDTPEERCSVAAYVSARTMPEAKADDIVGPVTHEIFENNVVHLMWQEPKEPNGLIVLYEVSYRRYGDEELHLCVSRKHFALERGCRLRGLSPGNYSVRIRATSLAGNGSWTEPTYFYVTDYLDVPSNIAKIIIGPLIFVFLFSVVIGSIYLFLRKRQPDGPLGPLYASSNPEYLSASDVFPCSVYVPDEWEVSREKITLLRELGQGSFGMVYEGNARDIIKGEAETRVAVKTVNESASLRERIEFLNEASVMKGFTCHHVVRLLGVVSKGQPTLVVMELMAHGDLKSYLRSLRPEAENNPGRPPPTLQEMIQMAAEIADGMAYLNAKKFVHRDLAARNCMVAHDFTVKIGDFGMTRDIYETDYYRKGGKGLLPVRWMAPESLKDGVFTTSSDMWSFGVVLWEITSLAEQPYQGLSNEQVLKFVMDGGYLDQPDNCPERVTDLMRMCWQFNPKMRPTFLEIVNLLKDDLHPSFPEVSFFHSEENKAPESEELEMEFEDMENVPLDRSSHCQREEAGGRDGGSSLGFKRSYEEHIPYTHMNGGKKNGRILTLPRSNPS
Phosphorylase b kinase gamma catalytic chain, liver/testis isoform (Homo sapiens), sequence (P15735 whole entry, canonical isoform): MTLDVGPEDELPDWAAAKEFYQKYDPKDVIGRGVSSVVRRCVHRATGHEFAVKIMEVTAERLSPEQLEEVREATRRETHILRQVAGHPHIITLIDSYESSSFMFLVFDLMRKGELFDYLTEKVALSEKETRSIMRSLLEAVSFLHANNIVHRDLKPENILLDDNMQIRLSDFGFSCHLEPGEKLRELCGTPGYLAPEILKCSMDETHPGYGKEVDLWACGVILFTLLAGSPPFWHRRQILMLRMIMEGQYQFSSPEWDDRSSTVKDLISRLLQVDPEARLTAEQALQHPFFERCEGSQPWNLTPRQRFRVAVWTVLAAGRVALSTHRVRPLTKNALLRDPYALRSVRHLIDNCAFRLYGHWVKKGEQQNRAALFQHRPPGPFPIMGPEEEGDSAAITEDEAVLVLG
Death-associated protein kinase 3 (Homo sapiens), sequence (O43293 whole entry, looked up): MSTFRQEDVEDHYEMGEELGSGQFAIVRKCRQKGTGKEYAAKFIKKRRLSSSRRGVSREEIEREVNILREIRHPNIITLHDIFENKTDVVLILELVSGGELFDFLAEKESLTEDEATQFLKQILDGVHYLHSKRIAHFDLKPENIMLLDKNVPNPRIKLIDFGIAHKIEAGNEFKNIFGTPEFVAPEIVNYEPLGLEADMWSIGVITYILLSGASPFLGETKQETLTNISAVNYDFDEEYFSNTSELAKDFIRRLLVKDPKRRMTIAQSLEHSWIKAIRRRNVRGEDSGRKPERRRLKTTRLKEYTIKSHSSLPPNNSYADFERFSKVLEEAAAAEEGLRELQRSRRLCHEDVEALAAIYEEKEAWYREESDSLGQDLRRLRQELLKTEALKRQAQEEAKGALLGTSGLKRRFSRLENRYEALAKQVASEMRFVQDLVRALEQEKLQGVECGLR
Interleukin-1 receptor-associated kinase 4 (Homo sapiens), sequence (Q9NWZ3 whole entry): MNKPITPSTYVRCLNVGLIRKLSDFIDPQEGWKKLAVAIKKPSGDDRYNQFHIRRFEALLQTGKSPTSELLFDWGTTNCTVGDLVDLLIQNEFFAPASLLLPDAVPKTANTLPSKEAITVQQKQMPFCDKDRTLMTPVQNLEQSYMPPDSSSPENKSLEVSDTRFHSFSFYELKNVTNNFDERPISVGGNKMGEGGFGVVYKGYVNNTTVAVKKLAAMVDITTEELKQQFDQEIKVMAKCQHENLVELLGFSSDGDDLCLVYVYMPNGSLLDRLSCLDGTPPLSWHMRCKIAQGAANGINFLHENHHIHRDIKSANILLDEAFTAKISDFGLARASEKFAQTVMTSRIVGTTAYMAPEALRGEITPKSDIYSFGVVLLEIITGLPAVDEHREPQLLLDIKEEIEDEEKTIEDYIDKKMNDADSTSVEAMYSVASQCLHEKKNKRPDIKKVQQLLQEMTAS
Serine/threonine-protein kinase Chk1 (Homo sapiens), sequence (O14757 whole entry): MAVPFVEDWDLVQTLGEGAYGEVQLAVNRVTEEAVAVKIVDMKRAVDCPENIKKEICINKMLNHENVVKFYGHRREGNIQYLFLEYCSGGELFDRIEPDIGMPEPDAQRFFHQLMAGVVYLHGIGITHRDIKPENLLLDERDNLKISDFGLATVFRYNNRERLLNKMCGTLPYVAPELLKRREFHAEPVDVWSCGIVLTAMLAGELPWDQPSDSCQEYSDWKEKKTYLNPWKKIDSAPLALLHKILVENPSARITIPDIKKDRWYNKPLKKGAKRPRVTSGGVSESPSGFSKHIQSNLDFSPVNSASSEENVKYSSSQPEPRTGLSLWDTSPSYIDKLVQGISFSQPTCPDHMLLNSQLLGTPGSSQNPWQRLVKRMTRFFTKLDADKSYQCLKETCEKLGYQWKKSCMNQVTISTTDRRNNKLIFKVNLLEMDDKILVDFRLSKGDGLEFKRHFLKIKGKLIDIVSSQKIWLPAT

In general, inhibition refers to the drop in the measured response relative to a control, in per cent. On to `COc1cc2oc(-c3cccc(C(=O)Nc4ccc(C)cc4)c3)cc(=O)c2c(OC)c1OC`, for which the inhibition is 7.95% in test [1]; 16% in test [2]; 0.46% in test [3]; 1.03% in test [5]; 48.8% in test [7]; 14.9% in [9]. Also, the inhibition in test [11] worked out at 9.9%; in test [13], 20.9%; in test [16], 1.17%; in [21] it was 0.74%; in test [22] it was 3.26%; in [28], 8.33%. For the same compound, the inhibition in test [29] was determined as 7.06%. For the same compound, the inhibition entry in [4], in test [10], in [12], in test [14], in test [15] and in [17] was “inactive” each time. Besides, the inhibition entry in test [18], in test [19], in test [20], in [23], in test [24] and in [25] was “inactive” in each case. Also, the inhibition entry in [26], in test [27], in test [30], in test [31] and in test [33] was “inactive” throughout. Further, the inhibition at 10 µM was 94% in test [6] and over 50% in [8]. In addition, in test [32], the Activity stood at 64%.
As for `COc1cc2oc(-c3cccc(C(=O)Nc4ccc(Cl)cc4)c3)cc(=O)c2c(OC)c1OC`, the inhibition at 10 µM in test [34] is over 50%; in [35], 107%; in [36] it was 56.9%; in test [37] it was 68.6%.
